Source: PubChem BioAssay (NCI)
Several values for one entry are separate records, joined by “and”; a condition that tells them apart may be missing. Equal entries are not always repeated.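 These data come from cells grown in 96-well plates and exposed to compound for 48 hours at five concentrations. GI50 = concentration required for 50% inhibition of growth. TGI is the concentration that stops growth completely.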

Key:
Assay in all cases: NCI anticancer screen, dose series, 48 h
[1] = tested on: DU-145 prostate
[2] = tested on: SF-295 CNS
[3] = tested on: K-562 leukemia
[4] = tested on: SF-539 CNS
[5] = tested on: A549 NSCLC
[6] = tested on: A498 renal
[7] = tested on: KM12 colon
[8] = tested on: MDA-MB-231 breast
[9] = tested on: LOX IMVI melanoma
[10] = tested on: SK-MEL-2 melanoma

SMILES | GI50 [1] [µM] | TGI [1] [µM] | GI50 [2] [µM] | TGI [2] [µM] | GI50 [3] | TGI [3] [µM] | GI50 [4] | TGI [4] [µM] | GI50 [5] [µM] | TGI [5] [µM] | GI50 [6] [µM] | TGI [6] [µM] | GI50 [7] [µM] | TGI [7] [µM] | GI50 [8] [µM] | TGI [8] [µM] | GI50 [9] [µM] | TGI [9] [µM] | GI50 [10] [µM] | TGI [10] [µM]
O=C(Nc1cccc(-n2cc(-c3ccncc3)c(-c3ccc(O)c(Cl)c3)n2)c1)c1cccc(C(F)(F)F)c1 | 6.52 | > 100 | 2.98 | > 100 | 2.41 µM | > 100 | 3.27 µM | > 100 | 2.5 | > 100 | 3.44 | > 100 | 2.67 | 64.3 | 1.43 | 5.3 | 2.35 | > 100 | 4.54 | 38.1
CCOP(=O)(OCC)/C(C#N)=C/c1cccn1Cc1ccccc1 |  | > 100 |  | 97.6 |  | > 100 |  | 36.1 |  | > 100 |  | > 100 |  | 78.3 |  | 57.5 |  | 53 |  | 47.8
COc1ccc(-c2cc(C(O)C3CCCCN3)c3ccccc3n2)cc1 (stereo not drawn) |  | 20.5 |  | 28.4 |  | 8.24 |  | 23.5 |  | 27.8 |  | 25.4 |  | 15.3 |  | 9.83 |  | 16 |  | 18.5
Cc1ccc(/C(O)=C/c2nc3ccc([N+](=O)[O-])cc3nc2/C=C(\O)c2ccc(C)cc2)cc1 |  | > 100 |  | > 100 |  | > 100 |  | > 100 |  | > 100 |  | > 100 |  | > 100 |  | > 100 |  | > 100 |  | > 100
CCOP(=O)(OCC)C(C)(CC)NC(=O)C(C(F)(F)F)C(F)(F)F (stereo not drawn) |  | > 100 |  | > 100 | 18.6 µM and 39.1 µM | > 100 | 48.1 µM and > 100 µM | > 100 |  | > 100 |  | > 100 |  | > 100 | > 100 | > 100 |  | > 100 |  | > 100
COc1ccc(C(O)CC(O)(C(F)(F)F)C(F)(F)F)cc1 (stereo not drawn) |  | > 100 |  | 75.7 |  | 53.6 |  | 55.3 |  | > 100 |  | 64.1 |  | > 100 |  | > 100 |  | 36 |  | 40.8
NCCOCC(N)C(=O)O (stereo not drawn) |  | > 100 |  | > 100 |  | > 100 |  | > 100 |  | > 100 |  | > 100 |  | > 100 |  | > 100 |  | > 100 |  | > 100
O=C(/C=C/c1cccs1)c1ccccc1Cl |  | 26.4 |  | 36.2 |  | > 100 |  | > 69.1 |  | 1.4 |  | 24 |  | 20.4 |  | > 54.4 |  | 32.9 |  | 43.6
CSc1ccc(/C=C2\N=C(c3ccccc3)N(/N=C/c3cc4cc(C)ccc4nc3Cl)C2=O)cc1 |  | 36 |  | 44.7 |  | 57.2 |  | 43.3 |  | 59 |  | 43 |  | 33.8 |  | 47.6 |  | 44.6 |  | 43.7
CN1C(=O)C(O)CC1c1cccc(C(F)(F)F)c1 (stereo not drawn) |  | > 100 |  | > 100 |  | > 100 |  | > 100 |  | > 100 |  | > 100 |  | > 100 |  | > 100 |  | > 100 |  | > 100
CCOC(=O)c1cn(C)c(=S)n2c1nc1ccccc12 |  | > 100 |  | > 100 |  | > 100 |  | > 100 |  | > 100 |  | > 100 |  | > 100 |  | > 100 |  | > 100 |  | > 100
Cc1ccc(S(=O)(=O)n2cc(C#N)c(C#N)c2)cc1 |  | > 100 |  | 61.6 |  | > 100 |  | 39.9 |  | 78.9 |  | 71.9 |  | > 100 |  | > 100 |  | 52.1 |  | 52
CCCNc1ncnc2[nH]ncc12 |  | > 100 |  | > 100 |  | > 100 |  | > 100 |  | > 100 |  | > 100 |  | > 100 |  | > 100 |  | > 100 |  | > 100
